{"source": "patent US20260284042A1", "about": "“DOSING REGIMEN” (ViiV Healthcare UK (No.3) Limited, priority 2024, published 2026)", "key": {"[1]": {"conditions": "cited from earlier work"}, "HIV-1 strains": {"tested_on": "HIV-1 strains", "conditions": "integrase strand transfer inhibitor; antiviral activity against a broad range of HIV-1 strains; cited from earlier work"}, "[2]": {"experiment": "Cabotegravir population pharmacokinetic (PopPK) model, CAB 200 mg/mL IM injections", "set-up": "species or system human", "experimental": "In a first set of simulations, a cabotegravir population pharmacokinetic (PopPK) model was built based on PK data following cabotegravir (CAB) 200 mg/mL intramuscular (IM) injections collected in 16 historical studies (Population pharmacokinetics of cabotegravir following administration of oral tablet and long-acting intramuscular injection in adult HIV-1-infected and uninfected subjects. Han K, Baker M, Lovern M, Paul P, Xiong Y, Patel P, Moore K P, Seal C S, Cutrell A G, D'Amico R D, Benn P D, Landovitz R J, Marzinke M A, Spreen W R, Ford S L. Br J Clin Pharmacol. 2022 October;88 (10): 4607-4622. doi: 10.1111/bcp. 15439. Epub 2022 Jul. 4. PMID: 35695476) and updated based on PK data from 19 studies: LAI116585, LAI117010, LAI117011, LAI117020, 201741, 201479, 201480, 205696, LAI116482 (LATTE), LAI115428, LAI116815, 200056 (LATTE-2), 201120 (ECLAIR), 201103 (HPTN077), 201584 (FLAIR), 201585 (ATLAS), 207966 (ATLAS-2M), 201738 (HPTN 083) and 201739 (HPTN 084). A total of 34,850 CAB plasma concentrations collected at various time points from 2,694 participants were used to build this PopPK model."}}, "note": "Read-outs that look alike come from different tables or passages of the source.", "data": [{"smiles": "C[C@H]1CO[C@@H]2Cn3cc(C(=O)NCc4ccc(F)cc4F)c(=O)c(O)c3C(=O)N12", "note": "[Cabotegravir, (3S, 11aR)-N-((2,4-difluorophenyl)methyl)-6-hydroxy-3-methyl-5,7-dioxo-2,3,5,7,11,11a-hexahydro (1,3) oxazolo (3,2-a)pyrido (1,2-d) pyrazine-8-carboxamide]", "values": [{"measurement": "10th percentile of Ctau observed", "setting": "[1]; Phase 3 study 201738 (HPTN 083), people assigned male at birth", "value": 1.05, "unit": "µg/mL"}, {"measurement": "10th percentile of Ctau observed", "setting": "[1]; Phase 3 study 201739 (HPTN 084), people assigned female at birth", "value": 1.39, "unit": "µg/mL"}, {"measurement": "potency", "setting": "HIV-1 strains", "value": "subnanomolar"}, {"measurement": "Apparent central clearance (CL/F), higher in current smokers", "setting": "[2]", "value": 16.4, "unit": "%"}, {"measurement": "KA2 versus BMI", "setting": "[2]", "value": "decreased with increasing BMI"}, {"measurement": "KA2 versus needle length", "setting": "[2]", "value": "lower with longer needle length"}, {"measurement": "Long-acting intramuscular gluteal absorption rate constant (KA2), lower in people assigned female at birth than male at birth", "setting": "[2]; CAB 200 mg/mL IM injections", "value": 46.5, "unit": "%"}, {"measurement": "KA2, higher in study 201120 (ECLAIR) than other studies", "setting": "[2]; after adjusting for all covariates", "value": 22.8, "unit": "%"}, {"measurement": "KA2 versus split injections", "setting": "[2]; people assigned female at birth", "value": "not associated with split injections"}, {"measurement": "KA2, higher if the injection was split", "setting": "[2]; people assigned male at birth", "value": 50.8, "unit": "%"}]}]}
